# Results from patent US7378401B2, “Use of Fosfluridine Tidoxil (FT) for the treatment of intraepithelial proliferative diseases” (Heidelberg Pharma GmbH, priority 2006, dated 2008).
# “Also recorded” adds a separate entry of the source. Where two headings read alike, the source gives them in different places.
# Columns and labels:
# [1] = after intravenous administration; cited from earlier work
# bone marrow cells = assay: bone marrow toxicity after intravenous doses; format: in vivo; settings: single and repeated intravenous doses
# [2] = in vivo
# From the text: One of the drawbacks of using intravenously administered 5-Fluorouracil is bone marrow suppression, expressed clinically by increased susceptibility to infections and fatigue.
# actinic keratosis = assay: oral Fosfluridine Tidoxil in patients with advanced actinic keratosis; format: in vivo, human
# Procedure: A person was suffering from an advanced actinic keratosis since more than 3 years. In this time they received different types of topical treatment, such as Solaraze (3% Diclofenac) or Aldara (Imiquimod). Thereafter they were treated with 50 mg of Fosfluridine Tidoxil (1 capsule). The patient received 3 cycles each cycle consisting of a once daily oral administration over 7 days followed by a treatment free week (two weeks per cycle).
# A patient was diagnosed to have an actinic keratosis 15 years before and was now in an advanced stage. In the years before taking Fosfluridine Tidoxil they were, in essence, treated with Solaraze. Since the therapeutic benefit appears to be limited they then received 100 mg of oral Fosfluridine Tidoxil (2 capsules of 50 mg) over 3 cycles (as mentioned above).
# A person with a first diagnosis of Actinic keratosis 1.6 years before use of Fosfluridine Tidoxil was treated topically, however, eventually without therapeutic benefit. […] They then received 100 mg of oral Fosfluridine Tidoxil (2 capsules of 50 mg) over 3 cycles (as described above). […] This patient was not treated over the next four months with any topical.
# A patient suffered from Actinic keratosis for more than 7 years and was now in an advanced stage. […] […], then, received 100 mg of oral Fosfluridine Tidoxil (2 capsules of 50 mg) over 3 cycles (as de-scribed above). […] In the next 2 month this patient was not treated with any topical.
# [3] = system: primary human keratinocytes
# SCLC xenograft = settings: mice, dose-dependent, maximum inhibition
# [4] = mice, up to highest single p.o. dose tested of 3.8 g/kg
# CFU-E and CFU-GM = settings: doses manifold higher than highly toxic doses of FUrd
# [5] = oral administration, mice
# [6] = oral administration, rhesus monkeys
# [7] = man
SMILES,drug eliminated within the first hour [1],bone marrow toxicity (bone marrow cells),distribution to the bone marrow [2],"reduction of lesion count (actinic keratosis; 50 mg oral once daily, 3 cycles (7 days on, 7 days off), plus one month of observation) [%]","histological stage of lesions (actinic keratosis; 50 mg oral once daily, 3 cycles, plus one month of observation, most severe area)","histological stage of lesions (actinic keratosis; 100 mg oral once daily, 3 cycles, plus one month of observation, listed as Fosfluridine Tidoxil)","outcome in follow-up without any topical treatment (actinic keratosis; after 100 mg oral, 3 cycles, next 2-4 months without topical, listed as Fosfluridine Tidoxil)",effectiveness in proliferating compared to non-proliferating keratinocytes [3],inhibition of SCLC xenograft tumor growth (SCLC xenograft),mortality in acute tolerability study [4],suppression of in vitro colony formation of CFU-E and CFU-GM (CFU-E and CFU-GM),plasma half-life [5] [h],plasma half-life [6] [h],plasma concentrations of 5-FU and 5-FUrd after administration of FT [7],plasma half-life ([7]; oral administration) [h]
"O=c1[nH]cc(F)c(=O)[nH]1 [Example 5-FU, 5-Fluorouracil]",Over 90%,–,–,–,–,–,–,–,–,–,–,–,–,–,–
"O=c1[nH]c(=O)n([C@@H]2O[C@H](CO)[C@@H](O)[C@H]2O)cc1F [Example 5-FUrd, 5-Fluorouridine, reference compound]",–,dose-dependently suppressed bone marrow cells,–,–,–,–,–,–,–,–,–,–,–,–,–
"CCCCCCCCCCCCSCC(COP(=O)([O-])OCC1OC(n2cc(F)c(=O)[nH]c2=O)C(O)C1O)OCCCCCCCCCC.[Na+] (stereo not shown) [FT, (5-fluorouridine)-5′-phosphoric acid (3-dodecylmercapto-2-decyloxy)propylester, Na-salt]",–,did not result in bone marrow toxicity,not distributed to the bone marrow,34,reduced from stage 3 to stage 1,decreased from class 2 to class 1; also recorded: reduced from class 3 to class 2; also recorded: reduced from 3 to 1,all actinic keratoses have disappeared; also recorded: all actinic lesions have disappeared,far more effective in proliferating primary human keratinocytes,up to 82%,no animal died,did not suppress,4 to 5,8 to 10,negligible,> 20
